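A five-concentration, 48-hour dose response in 96-well plates underlies each endpoint, interpolated linearly between surrounding concentrations. At the GI50, growth is halved. TGI is the concentration that stops growth completely.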
What was measured:
Test in all cases: NCI tumour cell line growth inhibition, 48 h
786-0 renal = tested on: 786-0 renal
A498 renal = tested on: A498 renal
CAKI-1 renal = tested on: CAKI-1 renal
HCT-15 colon = tested on: HCT-15 colon
HOP-62 NSCLC = tested on: HOP-62 NSCLC
HOP-92 NSCLC = tested on: HOP-92 NSCLC
KM12 colon = tested on: KM12 colon
M14 melanoma = tested on: M14 melanoma
SR leukemia = tested on: SR leukemia
UO-31 renal = tested on: UO-31 renal

O=C(Nc1nccs1)c1cc2c(cc1Cl)Sc1nccn1S2(=O)=O
GI50 (786-0 renal): 16 µM
TGI (786-0 renal): 29.4 µM
GI50 (A498 renal): 19.2 µM
TGI (A498 renal): 34.8 µM
GI50 (CAKI-1 renal): 8.5 µM
TGI (CAKI-1 renal): 36.9 µM
GI50 (HCT-15 colon): 12.2 µM
TGI (HCT-15 colon): 33.9 µM
GI50 (HOP-62 NSCLC): 14.8 µM
TGI (HOP-62 NSCLC): 30.2 µM
TGI (HOP-92 NSCLC): 39.4 µM
GI50 (KM12 colon): 12.4 µM
TGI (KM12 colon): 26.6 µM
GI50 (M14 melanoma): 17.8 µM
TGI (M14 melanoma): 34.6 µM
GI50 (SR leukemia): 3 µM
TGI (SR leukemia): 11.9 µM
GI50 (UO-31 renal): 4.41 µM
TGI (UO-31 renal): 14.7 µM

CN1CCC[C@@H]1CCO[C@](C)(c1ccccc1)c1ccc(Cl)cc1
GI50 (786-0 renal): 5.88 µM
TGI (786-0 renal): 19.7 µM
GI50 (A498 renal): 10.7 µM
TGI (A498 renal): 23 µM
GI50 (CAKI-1 renal): 7.12 µM
TGI (CAKI-1 renal): 21.5 µM
GI50 (HCT-15 colon): 4.4 µM
TGI (HCT-15 colon): 16 µM
GI50 (HOP-62 NSCLC): 10.1 µM
TGI (HOP-62 NSCLC): 23.1 µM
GI50 (HOP-92 NSCLC): 1.8 µM
TGI (HOP-92 NSCLC): 8.37 µM
GI50 (KM12 colon): 7.04 µM
TGI (KM12 colon): 20.2 µM
GI50 (M14 melanoma): 1.82 µM
TGI (M14 melanoma): 3.45 µM
GI50 (SR leukemia): 2.32 µM
TGI (SR leukemia): 9.59 µM
GI50 (UO-31 renal): 2.83 µM
TGI (UO-31 renal): 16.3 µM

ClC1CCC2OOC1O2 (stereo not drawn)
TGI (786-0 renal): > 100 µM
TGI (A498 renal): > 100 µM
TGI (CAKI-1 renal): > 100 µM
TGI (HCT-15 colon): > 100 µM
TGI (HOP-62 NSCLC): > 100 µM
TGI (HOP-92 NSCLC): > 100 µM
TGI (KM12 colon): > 100 µM
TGI (M14 melanoma): > 100 µM
TGI (SR leukemia): > 100 µM
TGI (UO-31 renal): > 100 µM

COC(=O)C(=O)C(C(=O)C(=O)Nc1ccc(Cl)cc1C)c1nc2ccc(C(=O)c3ccccc3)cc2[nH]c1=O (stereo not drawn)
TGI (786-0 renal): > 100 µM
TGI (A498 renal): > 100 µM
TGI (CAKI-1 renal): > 100 µM
TGI (HCT-15 colon): > 100 µM
TGI (HOP-62 NSCLC): > 100 µM
TGI (HOP-92 NSCLC): > 100 µM
TGI (KM12 colon): > 100 µM
TGI (M14 melanoma): > 100 µM
TGI (SR leukemia): > 100 µM
TGI (UO-31 renal): > 100 µM

ClCc1ccc(-c2ccc(Cn3cnc4c(Cl)nc(Cl)nc43)cc2)cc1
GI50 (786-0 renal): 6.43 µM
TGI (786-0 renal): 19.6 µM
GI50 (A498 renal): 2.33 µM
TGI (A498 renal): 11.4 µM
GI50 (CAKI-1 renal): 1.84 µM
TGI (CAKI-1 renal): 4.32 µM
GI50 (HCT-15 colon): 1.67 µM
TGI (HCT-15 colon): 3.35 µM
GI50 (HOP-62 NSCLC): 1.92 µM
TGI (HOP-62 NSCLC): 4 µM
GI50 (HOP-92 NSCLC): 1.98 µM
TGI (HOP-92 NSCLC): 5.56 µM
GI50 (KM12 colon): 2.12 µM
TGI (KM12 colon): 4.4 µM
GI50 (M14 melanoma): 13.4 µM
TGI (M14 melanoma): 32.3 µM
GI50 (SR leukemia): 1.9 µM
TGI (SR leukemia): 6.43 µM
GI50 (UO-31 renal): 3.32 µM
TGI (UO-31 renal): 8.18 µM

C=C1C(=O)O[C@H]2[C@H]1CC/C(Cn1cc(Cn3ccc4ccccc43)nn1)=C\CC[C@@]1(C)O[C@@H]21
GI50 (786-0 renal): 1.59 µM
TGI (786-0 renal): 3.12 µM
GI50 (A498 renal): 4.3 µM
TGI (A498 renal): 16.6 µM
GI50 (CAKI-1 renal): 1.15 µM
TGI (CAKI-1 renal): 2.38 µM
GI50 (HCT-15 colon): 1.3 µM
TGI (HCT-15 colon): 2.77 µM
GI50 (HOP-62 NSCLC): 6.96 µM
TGI (HOP-62 NSCLC): 20.1 µM
GI50 (HOP-92 NSCLC): 1.01 µM
TGI (HOP-92 NSCLC): 2.29 µM
GI50 (KM12 colon): 4.21 µM
TGI (KM12 colon): 15.2 µM
GI50 (M14 melanoma): 1.25 µM
TGI (M14 melanoma): 2.79 µM
GI50 (SR leukemia): 0.345 µM
TGI (SR leukemia): 3.71 µM
GI50 (UO-31 renal): 1.26 µM
TGI (UO-31 renal): 2.53 µM

O=C(O)c1ccc(O)c(N=Nc2cc(S(=O)(=O)O)c3ccccc3c2O)c1
TGI (786-0 renal): > 100 µM
TGI (A498 renal): > 100 µM
TGI (CAKI-1 renal): > 100 µM
TGI (HCT-15 colon): > 10 µM
TGI (HOP-62 NSCLC): 35.6 µM
TGI (HOP-92 NSCLC): > 100 µM
TGI (KM12 colon): > 100 µM
TGI (SR leukemia): > 100 µM
TGI (UO-31 renal): > 100 µM

COC(=O)C(C(=O)C(=O)NC1=C(Cl)C(=O)c2ccccc2C1=O)c1csc(-n2nc(-c3ccccc3)cc2-c2ccccc2)n1 (stereo not drawn)
TGI (786-0 renal): > 100 µM
TGI (A498 renal): > 100 µM
TGI (CAKI-1 renal): > 100 µM
TGI (HCT-15 colon): > 100 µM
TGI (HOP-62 NSCLC): > 100 µM
TGI (HOP-92 NSCLC): > 100 µM
TGI (KM12 colon): > 100 µM
TGI (M14 melanoma): > 100 µM
TGI (SR leukemia): > 100 µM
TGI (UO-31 renal): > 100 µM

— PubChem BioAssay (NCI)
